Assay results reported in ChEMBL document CHEMBL4765372, “Design, synthesis and anti-inflammatory activity of 3-amino acid derivatives of ocotillol-type sapogenins” (Eur J Med Chem, 2020).
Activity calls are given as the source filed them. The rule behind the calls is not given here.

What was measured:
RAW264.7 [1] = test: Cytotoxicity against mouse RAW264.7 assessed as reduction in cell viability at 20 uM measured after 24 hrs by MTT assay relative to control; assay type: cell-based; conditions: raw264.7, 24 h
RAW264.7 [2] = test: Antiinflammatory activity in mouse RAW264.7 cells assessed as inhibition of LPS-induced NO production at 20 uM after 24 hrs by Griess method; assay type: functional, cell-based
RAW264.7 [3] = test: Inhibition of LPS-induced IL-6 protein expression in mouse RAW264.7 cells upto 30 uM measured after 6 hrs by ELISA; assay type: functional, cell-based; conditions: dose microM <=30, time 6.0 hrs
RAW264.7 [4] = test: Inhibition of LPS-induced NO production in mouse RAW264.7 cells assessed as reduction in COX-2 protein expression measured after 24 hrs by Western blot analysis; assay type: functional, cell-based; conditions: dose microM <=30, time 24.0 hrs
RAW264.7 [5] = test: Inhibition of LPS-induced JNK phosphorylation in mouse RAW264.7 cell upto 30 uM measured after 2 hr by Western blot analysis; conditions: dose microM <=30, time 2.0 hrs
RAW264.7 [6] = test: Inhibition of LPS-induced NO production in mouse RAW264.7 cells assessed as reduction in iNOS protein expression measured after 24 hrs by Western blot analysis; assay type: functional, cell-based; conditions: dose microM <=30, time 24.0 hrs
RAW264.7 [7] = test: Inhibition of LPS-stimulated NFkappaB activation in mouse RAW264.7 cells assessed as reduction in LPS-induced IkappaB phosphorylation at 7.5 to 30 uM after 2 hrs by Western blot analysis; assay type: cell-based; conditions: dose 7.5-30 µM
[8] = target: Transcription factor p65 (Mus musculus) (UniProt Q04207); test: Inhibition of LPS-induced NFkappaB p65 nucleus translocation in mouse RAW264.7 cells at 30 uM measured after 2 hr by immunofluorescence microscopic analysis; assay type: cell-based
[9] = target: Mitogen-activated protein kinase 1 and 3 (ERK2 and ERK1) (Mus musculus) (UniProt P63085+Q63844); test: Inhibition of LPS-induced ERK1/2 phosphorylation in mouse RAW264.7 cell upto 30 uM measured after 2 hr by Western blot analysis; conditions: dose microM <=30, time 2.0 hrs
RAW264.7 [10] = test: Inhibition of LPS-induced p38 phosphorylation in mouse RAW264.7 cell upto 30 uM measured after 2 hr by Western blot analysis; conditions: dose microM <=30, time 2.0 hrs
RAW264.7 [11] = test: Inhibition of LPS-induced TNFalpha protein expression in mouse RAW264.7 cells upto 30 uM measured after 6 hrs by ELISA; assay type: functional, cell-based; conditions: dose microM <=30, time 6.0 hrs

Mitogen-activated protein kinase 1 and 3 (ERK2 and ERK1) (Mus musculus), sequence (P63085 whole entry, looked up): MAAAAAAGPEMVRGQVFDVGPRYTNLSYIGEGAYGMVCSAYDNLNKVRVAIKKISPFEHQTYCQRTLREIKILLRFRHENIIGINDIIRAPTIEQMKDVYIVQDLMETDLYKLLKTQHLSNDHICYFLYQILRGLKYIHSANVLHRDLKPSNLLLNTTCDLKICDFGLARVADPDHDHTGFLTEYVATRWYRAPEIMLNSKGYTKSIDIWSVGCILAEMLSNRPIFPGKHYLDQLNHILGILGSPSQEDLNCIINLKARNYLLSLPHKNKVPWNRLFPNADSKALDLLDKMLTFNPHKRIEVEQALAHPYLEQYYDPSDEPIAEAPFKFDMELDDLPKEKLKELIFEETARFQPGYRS
Mitogen-activated protein kinase 1 and 3 (ERK2 and ERK1) (Mus musculus), sequence (Q63844 whole entry, looked up): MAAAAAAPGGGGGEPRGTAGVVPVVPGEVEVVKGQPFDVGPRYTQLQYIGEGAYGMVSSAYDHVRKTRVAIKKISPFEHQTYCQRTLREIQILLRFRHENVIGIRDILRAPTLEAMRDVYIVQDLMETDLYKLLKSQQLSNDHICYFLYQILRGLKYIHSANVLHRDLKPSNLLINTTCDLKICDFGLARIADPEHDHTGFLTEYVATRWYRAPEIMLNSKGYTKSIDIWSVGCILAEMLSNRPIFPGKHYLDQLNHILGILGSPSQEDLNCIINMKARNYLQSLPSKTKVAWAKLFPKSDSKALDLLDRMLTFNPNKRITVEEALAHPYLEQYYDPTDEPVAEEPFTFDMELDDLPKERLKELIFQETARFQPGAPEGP
Transcription factor p65 (Mus musculus), sequence (Q04207 whole entry): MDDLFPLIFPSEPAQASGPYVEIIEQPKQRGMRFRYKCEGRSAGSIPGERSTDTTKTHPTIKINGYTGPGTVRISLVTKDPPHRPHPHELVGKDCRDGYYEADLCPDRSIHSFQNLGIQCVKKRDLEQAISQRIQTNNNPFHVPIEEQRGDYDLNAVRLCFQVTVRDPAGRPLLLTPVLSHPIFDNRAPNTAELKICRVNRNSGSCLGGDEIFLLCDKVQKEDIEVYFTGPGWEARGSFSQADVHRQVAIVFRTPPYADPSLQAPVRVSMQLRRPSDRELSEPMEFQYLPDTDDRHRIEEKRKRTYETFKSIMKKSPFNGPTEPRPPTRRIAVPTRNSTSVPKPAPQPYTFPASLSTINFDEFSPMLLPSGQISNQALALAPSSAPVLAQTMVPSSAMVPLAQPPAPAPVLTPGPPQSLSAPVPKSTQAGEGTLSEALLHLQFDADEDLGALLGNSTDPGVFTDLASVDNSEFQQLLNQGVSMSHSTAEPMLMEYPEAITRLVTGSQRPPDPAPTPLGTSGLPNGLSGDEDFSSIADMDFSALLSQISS

Compound | Activity (RAW264.7 [1]) | Activity (RAW264.7 [2]) | other results
CC(C)(O)[C@H]1CC[C@@](C)([C@H]2CC[C@]3(C)[C@@H]2[C@H](O)C[C@@H]2[C@@]4(C)CC[C@H](OC(=O)CNC(=O)CN)C(C)(C)[C@@H]4CC[C@]23C)O1 | Non-Toxic | Active | –
CC(C)(O)[C@H]1CC[C@@](C)([C@H]2CC[C@]3(C)[C@@H]2[C@H](O)C[C@@H]2[C@@]4(C)CC[C@H](OC(=O)CNC(=O)CNC(=O)CN)C(C)(C)[C@@H]4CC[C@]23C)O1 | Non-Toxic | Active | –
CC(C)(O)[C@H]1CC[C@@](C)([C@H]2CC[C@]3(C)[C@@H]2[C@H](O)C[C@@H]2[C@@]4(C)CC[C@H](OC(=O)CN)C(C)(C)[C@@H]4CC[C@]23C)O1 | Non-Toxic | Active | –
CC(C)(O)[C@H]1CC[C@@](C)([C@H]2CC[C@]3(C)[C@@H]2[C@H](O)C[C@@H]2[C@@]4(C)CC[C@H](OC(=O)[C@@H](N)CCC(=O)O)C(C)(C)[C@@H]4CC[C@]23C)O1 | Non-Toxic | Active | –
CC(C)(O)[C@@H]1CC[C@@](C)([C@H]2CC[C@]3(C)[C@@H]2[C@H](O)C[C@@H]2[C@@]4(C)CC[C@H](OC(=O)[C@@H](N)CCC(=O)O)C(C)(C)[C@@H]4CC[C@]23C)O1 | Non-Toxic | Active | –
CC(C)(O)[C@H]1CC[C@@](C)([C@H]2CC[C@]3(C)[C@@H]2[C@H](O)C[C@@H]2[C@@]4(C)CC[C@H](OC(=O)[C@@H](N)Cc5ccccc5)C(C)(C)[C@@H]4CC[C@]23C)O1 | Non-Toxic | – | –
CC(C)(C)OC(=O)NCC(=O)O[C@H]1CC[C@]2(C)[C@H]3C[C@@H](O)[C@@H]4[C@@H]([C@]5(C)CC[C@H](C(C)(C)O)O5)CC[C@@]4(C)[C@]3(C)CC[C@H]2C1(C)C | Non-Toxic | Active | –
CC(C)(C)OC(=O)NCCCC[C@H](NC(=O)OC(C)(C)C)C(=O)O[C@H]1CC[C@]2(C)[C@H]3C[C@@H](O)[C@@H]4[C@@H]([C@]5(C)CC[C@H](C(C)(C)O)O5)CC[C@@]4(C)[C@]3(C)CC[C@H]2C1(C)C | Non-Toxic | Active | –
CC(C)(O)[C@@H]1CC[C@@](C)([C@H]2CC[C@]3(C)[C@@H]2[C@H](O)C[C@@H]2[C@@]4(C)CC[C@H](OC(=O)CNC(=O)CN)C(C)(C)[C@@H]4CC[C@]23C)O1 | Non-Toxic | Active | –
CC(C)(O)[C@@H]1CC[C@@](C)([C@H]2CC[C@]3(C)[C@@H]2[C@H](O)C[C@@H]2[C@@]4(C)CC[C@H](OC(=O)[C@@H](N)CCCCN)C(C)(C)[C@@H]4CC[C@]23C)O1 | Non-Toxic | – | –
CC(C)(C)OC(=O)NCCCC[C@H](NC(=O)OC(C)(C)C)C(=O)O[C@H]1CC[C@]2(C)[C@H]3C[C@@H](O)[C@@H]4[C@@H]([C@]5(C)CC[C@@H](C(C)(C)O)O5)CC[C@@]4(C)[C@]3(C)CC[C@H]2C1(C)C | Non-Toxic | Active | –
CC(C)(O)[C@@H]1CC[C@@](C)([C@H]2CC[C@]3(C)[C@@H]2[C@H](O)C[C@@H]2[C@@]4(C)CC[C@H](OC(=O)[C@@H](N)Cc5ccccc5)C(C)(C)[C@@H]4CC[C@]23C)O1 | Non-Toxic | – | –
CC(C)(O)[C@@H]1CC[C@@](C)([C@H]2CC[C@]3(C)[C@@H]2[C@H](O)C[C@@H]2[C@@]4(C)CC[C@H](O)C(C)(C)[C@@H]4CC[C@]23C)O1 | Non-Toxic | Active | –
CC(C)(O)[C@@H]1CC[C@@](C)([C@H]2CC[C@]3(C)[C@@H]2[C@H](O)C[C@@H]2[C@@]4(C)CC[C@H](OC(=O)CNC(=O)CNC(=O)CN)C(C)(C)[C@@H]4CC[C@]23C)O1 | Non-Toxic | Active | –
CC(C)(C)OC(=O)N[C@@H](Cc1ccccc1)C(=O)O[C@H]1CC[C@]2(C)[C@H]3C[C@@H](O)[C@@H]4[C@@H]([C@]5(C)CC[C@@H](C(C)(C)O)O5)CC[C@@]4(C)[C@]3(C)CC[C@H]2C1(C)C | Non-Toxic | – | –
CC(C)(O)[C@H]1CC[C@@](C)([C@H]2CC[C@]3(C)[C@@H]2[C@H](O)C[C@@H]2[C@@]4(C)CC[C@H](O)C(C)(C)[C@@H]4CC[C@]23C)O1 | Non-Toxic | Active | –
CC(C)(C)OC(=O)NCC(=O)NCC(=O)O[C@H]1CC[C@]2(C)[C@H]3C[C@@H](O)[C@@H]4[C@@H]([C@]5(C)CC[C@H](C(C)(C)O)O5)CC[C@@]4(C)[C@]3(C)CC[C@H]2C1(C)C | Non-Toxic | Active | inhibition (RAW264.7 [3]): Dose-dependent effect; inhibition (RAW264.7 [4]): Dose-dependent effect; inhibition (RAW264.7 [5]): inactive; inhibition (RAW264.7 [6]): Dose-dependent effect; inhibition (RAW264.7 [7]): Dose-dependent effect; inhibition [8]: Dose-dependent effect; inhibition [9]: Dose-dependent effect; inhibition (RAW264.7 [10]): Dose-dependent effect; inhibition (RAW264.7 [11]): Dose-dependent effect
CC(C)(O)[C@@H]1CC[C@@](C)([C@H]2CC[C@]3(C)[C@@H]2[C@H](O)C[C@@H]2[C@@]4(C)CC[C@H](OC(=O)CN)C(C)(C)[C@@H]4CC[C@]23C)O1 | Non-Toxic | Active | –
CC(C)(C)OC(=O)N[C@@H](Cc1ccccc1)C(=O)O[C@H]1CC[C@]2(C)[C@H]3C[C@@H](O)[C@@H]4[C@@H]([C@]5(C)CC[C@H](C(C)(C)O)O5)CC[C@@]4(C)[C@]3(C)CC[C@H]2C1(C)C | Non-Toxic | – | –
CC(C)(O)[C@H]1CC[C@@](C)([C@H]2CC[C@]3(C)[C@@H]2[C@H](O)C[C@@H]2[C@@]4(C)CC[C@H](OC(=O)[C@@H](N)CCCCN)C(C)(C)[C@@H]4CC[C@]23C)O1 | Non-Toxic | – | –
CC(C)(C)OC(=O)NCC(=O)NCC(=O)NCC(=O)O[C@H]1CC[C@]2(C)[C@H]3C[C@@H](O)[C@@H]4[C@@H]([C@]5(C)CC[C@H](C(C)(C)O)O5)CC[C@@]4(C)[C@]3(C)CC[C@H]2C1(C)C | Non-Toxic | inactive | –
CC(C)(C)OC(=O)CC[C@H](NC(=O)OC(C)(C)C)C(=O)O[C@H]1CC[C@]2(C)[C@H]3C[C@@H](O)[C@@H]4[C@@H]([C@]5(C)CC[C@@H](C(C)(C)O)O5)CC[C@@]4(C)[C@]3(C)CC[C@H]2C1(C)C | Non-Toxic | – | –
CC(C)(C)OC(=O)CC[C@H](NC(=O)OC(C)(C)C)C(=O)O[C@H]1CC[C@]2(C)[C@H]3C[C@@H](O)[C@@H]4[C@@H]([C@]5(C)CC[C@H](C(C)(C)O)O5)CC[C@@]4(C)[C@]3(C)CC[C@H]2C1(C)C | Non-Toxic | – | –
CC(C)(C)OC(=O)NCC(=O)NCC(=O)NCC(=O)O[C@H]1CC[C@]2(C)[C@H]3C[C@@H](O)[C@@H]4[C@@H]([C@]5(C)CC[C@@H](C(C)(C)O)O5)CC[C@@]4(C)[C@]3(C)CC[C@H]2C1(C)C | Non-Toxic | – | –
C[C@]12CCC(=O)C=C1CC[C@@H]1[C@@H]2[C@@H](O)C[C@@]2(C)[C@H]1CC[C@]2(O)C(=O)COC(=O)CCC(=O)[O-].[Na+] [HYDROCORTISONE SODIUM SUCCINATE] | Non-Toxic | – | –
CC(C)(C)OC(=O)NCC(=O)O[C@H]1CC[C@]2(C)[C@H]3C[C@@H](O)[C@@H]4[C@@H]([C@]5(C)CC[C@@H](C(C)(C)O)O5)CC[C@@]4(C)[C@]3(C)CC[C@H]2C1(C)C | Non-Toxic | Active | –
CC(C)(C)OC(=O)NCC(=O)NCC(=O)O[C@H]1CC[C@]2(C)[C@H]3C[C@@H](O)[C@@H]4[C@@H]([C@]5(C)CC[C@@H](C(C)(C)O)O5)CC[C@@]4(C)[C@]3(C)CC[C@H]2C1(C)C | Non-Toxic | Active | –
